From patent US20200275624A1, “A METHOD FOR PRODUCING BANANA PLANTS WITH TOLERANCE TO FUSARIUM OXYSPORUM CUBENSIS TR4” (RAHAN MERISTEM (1998) LTD, priority 2017, published 2020) come the findings set out here.

This test concerns banana meristems. As to the kind of experiment: Micropropagation of banana meristems in media comprising a cytokinin-like substance. It is filed as cell-based. The note with it: meristematic tissue propagation; compared with other cytokinin-like substances; TDZ in the range of 0.1 ppm. An excerpt:
In some embodiments, during the propagation stage, and typically before exposure to the demethylating agent, the meristematic tissues are propagated, at least in one propagating cycle, in a media comprising a cytokinin-like substance. Cytokinin like substances are known in the art, and non-limiting examples, include isopentenyl adenine (2iP), kinetin (KIN), 6-Benzyladenin (BA) and 6-Benzylaminopurine (BAP), 1-phenyl-3-(1,2,3-thiadiazol-5-yl) urea (TDZ).
The presence of TDZ in the culture media is in very low amounts, typically, in the range of 0.1 ppm. This amount is sufficient to induce the desired cell division.
On the 7th cycle of propagation 0.1 ppm Thidiazuron (TDZ) was added to the medium. In cycles 20 and 21, 30 μM 5-Aza-2-Deoxycytidine (a demethylation compound) was filter sterilized and added to the medium after solidification.

With `O=C(Nc1ccccc1)Nc1cnns1` [TDZ, 1-phenyl-3-(1,2,3-thiadiazol-5-yl) urea], the rate of multiplication entry is “best rate of multiplication”.
